# Measured values as given in paper PMC11269473, “Monoamine oxidase inhibition properties of 2,1-benzisoxazole derivatives” (Molecular Diversity, 2023).
# “And” between values parts separate entries of the source, which are not always exact repeats. Identical values can stand only once.
# Tests used:
# recombinant human MAO-A = target: T1, recombinant human MAO-A (Homo sapiens, UniProt P21397); assay: MAO-A inhibition, IC50 determination with kynuramine as substrate (fluorescence of 4-hydroxyquinoline); assay type: biochemical; details: 50 µM kynuramine, mean ± SD of triplicate, NI = no inhibition observed at 100 µM
# T1 construct: purchased Sigma-Aldrich; host or cells: insect cells (microsomes)
# T1 sequence (P21397 1-527): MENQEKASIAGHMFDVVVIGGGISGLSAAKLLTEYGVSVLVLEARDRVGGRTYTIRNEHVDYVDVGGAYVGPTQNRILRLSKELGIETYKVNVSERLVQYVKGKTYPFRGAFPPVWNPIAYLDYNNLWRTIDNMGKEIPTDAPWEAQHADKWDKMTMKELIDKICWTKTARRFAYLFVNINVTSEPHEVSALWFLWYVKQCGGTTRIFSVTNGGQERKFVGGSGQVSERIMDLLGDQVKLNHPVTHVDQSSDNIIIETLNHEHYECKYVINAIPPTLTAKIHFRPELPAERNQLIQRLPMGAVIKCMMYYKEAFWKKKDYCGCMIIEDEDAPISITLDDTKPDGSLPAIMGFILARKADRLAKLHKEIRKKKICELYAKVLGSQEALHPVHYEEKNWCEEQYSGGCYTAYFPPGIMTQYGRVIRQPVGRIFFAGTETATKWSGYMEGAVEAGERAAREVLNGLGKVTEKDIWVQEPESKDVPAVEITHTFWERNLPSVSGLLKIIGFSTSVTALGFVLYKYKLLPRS
# Method: (§1) The MAO inhibition properties of the 2,1-benzisoxazole derivatives were investigated using the commercially available recombinant human MAO-A and MAO-B enzymes with kynuramine serving as substrate. MAO oxidizes kynuramine to yield 4-hydroxyquinoline, which was measured by fluorescence spectrophotometry.
# (§2) For the MAO inhibition studies, a Varian Cary Eclipse fluorescence spectrophotometer was employed. Microsomes from insect cells containing recombinant human MAO-A and MAO-B (5 mg protein/mL) and kynuramine dihydrobromide were obtained from Sigma-Aldrich.
# (§3) IC50 values for the inhibition of MAO were measured as described previously. Microsomes from insect cells containing recombinant human MAO-A and MAO-B (5 mg protein/mL) served as enzyme sources (Sigma-Aldrich) while kynuramine was used as non-specific MAO substrate. The enzyme reactions (200 µL reactions prepared in 96-well microtiter plates) contained phosphate buffer (100 mM, pH 7.4), 50 µM kynuramine and the test inhibitors at concentrations of 0.003–100 µM. […] The reactions were initiated with addition of MAO-A (0.0075 mg protein/mL) or MAO-B (0.015 mg protein/mL) and after 20 min of incubation at 37 °C, the reactions were terminated by the addition of 80 µL NaOH (2 N). The concentration of 4-hydroxyquinoline, the product of kynuramine oxidation by MAO, was measured by fluorescence spectrophotometry (λex = 310 nm; λem = 400 nm). IC50 values were estimated from sigmoidal plots of enzyme catalytic rate versus the inhibitor concentration (log[I]) which were constructed with the Prism software package (GraphPad). IC50 values were estimated in triplicate determinations from these plots and are expressed as mean ± standard deviation (SD).
# recombinant human MAO-B = target: T2, recombinant human MAO-B (Homo sapiens, UniProt P27338); assay: MAO-B inhibition, IC50 determination with kynuramine as substrate (fluorescence of 4-hydroxyquinoline); assay type: biochemical; details: for SI (selectivity index): SI = IC50(MAO-A)/IC50(MAO-B); for IC50: recombinant human MAO-B, 50 µM kynuramine, mean ± SD of triplicate, NI = no inhibition observed at 100 µM
# T2 construct: purchased Sigma-Aldrich; host or cells: insect cells (microsomes)
# T2 sequence (P27338 1-520): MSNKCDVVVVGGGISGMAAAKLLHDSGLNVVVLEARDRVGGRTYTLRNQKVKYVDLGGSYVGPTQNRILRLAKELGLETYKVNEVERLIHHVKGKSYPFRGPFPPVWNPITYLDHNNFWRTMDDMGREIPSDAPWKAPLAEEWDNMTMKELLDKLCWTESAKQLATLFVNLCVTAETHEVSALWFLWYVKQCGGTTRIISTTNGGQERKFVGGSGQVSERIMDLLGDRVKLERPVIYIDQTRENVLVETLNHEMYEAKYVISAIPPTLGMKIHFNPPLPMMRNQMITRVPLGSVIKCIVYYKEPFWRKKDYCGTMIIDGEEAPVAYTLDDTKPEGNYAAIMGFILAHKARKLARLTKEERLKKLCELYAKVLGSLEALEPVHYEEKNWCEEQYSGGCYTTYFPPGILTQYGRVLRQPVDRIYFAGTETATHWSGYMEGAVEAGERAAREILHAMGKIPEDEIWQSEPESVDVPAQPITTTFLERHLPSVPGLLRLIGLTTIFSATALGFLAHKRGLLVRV
# Method: as §1, §2
# as §3, with “The” for “The reactions were initiated with addition of MAO-A (0.0075 mg protein/mL) or MAO-B (0.015 mg protein/mL) and after 20 min of incubation at 37 °C, the reactions were terminated by the addition of 80 µL NaOH (2 N). The”
Compound,IC50 (recombinant human MAO-A) [µM],SI (selectivity index) (recombinant human MAO-B),IC50 (recombinant human MAO-B),melting point [°C],"fold more potent MAO-B inhibition than homologues (recombinant human MAO-B; versus p-tolyl (3c), phenyl (3j), p-Br-phenyl (3m), p-Cl-phenyl (3n) and p-OCH3-phenyl (3o) homologues)"
"Cc1ccc(-c2onc3ccc(I)cc23)cc1 [Compound 3i, 5-Iodo-3-(p-tolyl)benzo[c]isoxazole]",43.9 ± 11.3,13,< 6.59 µM and 3.49 µM,109 to 110,
"Clc1ccc(-c2onc3ccc(Cl)cc23)cc1 [Compound 3n, 5-Chloro-3-(4-chlorophenyl)benzo[c]isoxazole]",81.3 ± 28.7,39,2.07 ± 0.381 µM,229 to 232,
"C(#Cc1ccc2noc(-c3ccccc3)c2c1)c1ccccc1 [Compound 3d, 3-Phenyl-5-(phenylethynyl)benzo[c]isoxazole]",71.6 ± 3.08,9.0,7.92 ± 0.684 µM,143 to 144,
"Cc1nc(-c2cc3noc(-c4ccc(C#N)cc4)c3cc2Cl)no1 [Compound 7c, 4-(5-Chloro-6-(5-methyl-1,2,4-oxadiazol-3-yl)benzo[c]isoxazol-3-yl)benzonitrile]",> 100,,0.139 ± 0.044 µM,257 to 258,
"Clc1ccc(-c2onc3ccc(I)cc23)cc1 [Compound 3b, 3-(4-Chlorophenyl)-5-iodobenzo[c]isoxazole]",77.7 ± 5.97,12,< 6.59 µM and 6.59 µM,185 to 187,
"Clc1cc2noc(-c3ccccc3)c2cc1Cl [Compound 3k, 6-Dichloro-3-phenylbenzo[c]isoxazole]",> 100,,5.56 ± 0.73 µM,,
"N#Cc1ccc(-c2onc3ccc(Cl)cc23)cc1 [Compound 7b, 4-(5-Chlorobenzo[c]isoxazol-3-yl)benzonitrile]",61 ± 9.19,622,0.098 ± 0.0036 µM,236 to 237,at least 12 fold
"COc1ccc2c(c1)[nH]c1c(C)nccc12 [Harmine, reference compound]",,,> 100 µM,,

# Second part, the molecule after the results:
IC50 (recombinant human MAO-A) [µM],SI (selectivity index) (recombinant human MAO-B),IC50 (recombinant human MAO-B),melting point [°C],"fold more potent MAO-B inhibition than homologues (recombinant human MAO-B; versus p-tolyl (3c), phenyl (3j), p-Br-phenyl (3m), p-Cl-phenyl (3n) and p-OCH3-phenyl (3o) homologues)",Compound
19.4 ± 2.58,6.4,< 6.59 µM and 3.03 µM,112 to 114,,"COc1ccc(-c2onc3ccc(I)cc23)cc1 [Compound 3a, 5-Iodo-3-(4-methoxyphenyl)benzo[c]isoxazole]"
8.76 ± 0.058,3.3,2.63 ± 0.178 µM,136 to 138,,"Cc1ccc(-c2onc3ccc(Cl)cc23)cc1 [Compound 3c, 5-Chloro-3-(p-tolyl)benzo[c]isoxazole]"
17.7 ± 0.424,1.1,< 16.3 µM and 16.3 µM,112 to 115,,"Ic1ccc2noc(-c3ccccc3)c2c1 [Compound 3h, 5-Iodo-3-phenylbenzo[c]isoxazole]"
10.6 ± 0.049,,4.43 ± 0.12 µM,,,"Clc1ccc2noc(-c3ccccc3)c2c1 [Compound 3j, 5-Chloro-3-phenylbenzo[c]isoxazole]"
8.95 ± 0.581,2.5,3.55 ± 0.037 µM,171 to 172,,"Cc1nc(-c2cc3noc(-c4ccccc4)c3cc2Cl)no1 [Compound 3e, 5-Chloro-6-(5-methyl-1,2,4-oxadiazol-3-yl)-3-phenylbenzo[c]isoxazole]"
19.5 ± 3.2,3.4,5.79 ± 0.013 µM,116 to 118,,"Brc1ccc2noc(-c3ccccc3)c2c1 [Compound 3g, 5-Bromo-3-phenylbenzo[c]isoxazole]"
8.49 ± 0.017,3.6,2.34 ± 0.055 µM,174,,"COc1ccc(-c2onc3ccc(Cl)cc23)cc1 [Compound 3o, 5-Chloro-3-(4-methoxyphenyl)benzo[c]isoxazole]"
3.29 ± 0.254,0.33,10 ± 0.949 µM,190 to 192,,"c1ccc(-c2onc3ccc(Oc4ccc5noc(-c6ccccc6)c5c4)cc23)cc1 [Compound 5, 5,5'-Oxybis(3-phenylbenzo[c]isoxazole)]"
